Measurements from patent publication US20110021621A1, “Drug for treating circulatory insufficiency” (ACTIVUS PHARMA CO., LTD., priority 2005, published 2011).
Where a name gives a salt, the structure may show the parent alone. Read-outs that look alike come from different tables or passages of the source. Blank lines part the entries; values can stand above or below the compound they belong to.

Key:
[1] = tested on: circulatory insufficiency model of rats induced by injection of lauric-acid into their femoral artery; assay: Circulatory insufficiency model induced by lauric-acid in rats (lesion index); type: in vivo, rat; set-up: key: summed toe lesion grades, +5 if heel reached; max 25 points; conditions: male Wistar rats, average, max 25 points
Protocol: We performed this test in order to evaluate the pharmacological effect of the compounds of the present invention using a circulatory insufficiency model of rats induced by injection of lauric-acid into their femoral artery.
13-week-old male Wistar rats (body weight is 280 to 316 g), 8 rats per one group, were used. The rats were held in a supine position under anesthesia due to administration of 40 mg/kg of sodium pentobarbital by intraperitoneal injection. Then, the right femoral area was incised, thereby injecting 0.15 mL of 10 mg/mL lauric-acid solution into the femoral artery in order to induce lower limb gangrene caused by the peripheral vascular disorder. A few drops of instant adhesive (Aron-alpha; registered trademark) were used to stop bleeding, followed by topical application of antibiotics (potassium penicillin G solution) to prevent infection, and the incision site was then sutured.
The suspension was administered, by means of multiple oral dosing, 1 hour prior to and 3 hours after injection of lauric-acid and twice daily (at 10:00 and 17:00) for the following 9 days, at the dose of 30 mg/kg for each compound. […] The suspension was administered orally 3 hours prior to injection of lauric-acid at the dose of 300 mg/kg.
The extent of lesions was evaluated 3 days and 10 days after injection of lauric acid by the following criteria:
The lesion of each toe was graded and the total points of 5 toes were use as a lesion index, wherein 5 points were further added when the lesion reached the heel (i.e. the maximum lesion index was 25 points).
The shown number refers to the average value of the lesion index obtained from the evaluation.

[2] = tested on: bleeding time in male SD rats; conditions: rat, in vivo, po
Protocol: (§1) 5-week-old male SD rats (body weight is 138 to 152 g), 6 rats per one group, were used. […] 50 minutes after the administration, 50 mg/kg of pentobarbital sodium was intraperitoneally injected into the rat.
(§2) 10 minutes later, the tail was cut off at a position of 2 mm from the tip using a surgical blade, and was immediately immersed into a glass container (Magnus bath) filled with physiological saline maintained at approximately 37° C. to observe until the rat stopped bleeding.
(§3) The bleeding time was taken as the time from the tail cutting to the cessation of bleeding. The tail was marked at a position of 5 cm from the tip in advance, and was immersed in the physiological saline in the glass container at the depth of 5 cm from the surface. The maximum observation time was defined as 60 minutes after the tail cutting.

[3] = Stability test in acidic or basic solution (half-life by liquid chromatography); type: physicochemical; conditions: time to 50% residual rate; for Half-life, pH 3.4 solution: phosphate buffer pH 3.4; for Half-life, pH 3.4 solution / Half-life, pH 7.3 solution: 1 mmoL/L, 37° C.; for Half-life, pH 7.3 solution: phosphate buffer pH 7.3
Protocol: The test compounds were dissolved in an acidic solution (phosphate buffer (pH3.4)) and in a basic solution (phosphate buffer (pH7.3)) at the concentration of 1 mmoL/L. Immediately after they were dissolved, each solution was analyzed with liquid chromatography using an acidic solution (phosphate buffer (pH3.4)) or basic solution (phosphate buffer (pH7.3)) as an eluent. The peak area of the test compounds was measured as the initial value. Furthermore, a time-course analysis with liquid chromatograpy was conducted to measure the peak area at each time point. The solution containing the test compound was kept in an incubator at 37° C. Based on the measured peak area of the test compounds, the percentage (%) of the peak area at each measurement time point was calculated, taking the peak area of the initial value as 100(%). The half-life (the time to show a 50% residual rate of the test compounds) of the test compounds was further calculated, and its stability was evaluated based on the half-life.

[4] = Bioabsorption: plasma concentration measurement in rats with oral administration; type: in vivo, rat; conditions: for concentration at 0.25 h: read-out: plasma concentration, Mean, time point 0.25 h; for concentration at 0.5 h: read-out: plasma concentration, Mean, time point 0.5 h; for concentration at 1 h: read-out: plasma concentration, Mean, time point 1.0 h; for concentration at 2 h: read-out: plasma concentration, Mean, time point 2.0 h; for concentration at 4 h: read-out: plasma concentration, Mean, time point 4.0 h; for concentration at 6 h: read-out: plasma concentration, Mean, time point 6.0 h; for concentration at 8 h: read-out: plasma concentration, Mean, time point 8.0 h; for AUC: read-out: AUC (area under the plasma concentration-time curve); for Cmax: read-out: Cmax (maximum plasma concentration); for Tmax: read-out: Tmax (time required to reach the maximum plasma concentration)
Protocol: We conducted a plasma concentration measurement in rats with oral administration to compare the absorption of the compound of the present invention (compound No. 451) with the comparative compound A and B.
6-week-old male SD rats (body weight is 200 to 230 g) were used for this test (3 rats per one group). The required amount of test compound was weighed and pulverized in an agate mortar. Then, a 0.5 (w/v) % methyl cellulose solution was added to prepare the suspension at the concentration of 10 mg/5 mL. 5 mL per kg body weight of the suspension was orally administered to rats once using a feeding tube for rats. About 0.3 mL of blood was sampled from the caudal vein using a heparinized glass tube at 0.25, 0.5, 1, 2, 4, 6, 8, 12 and 24 hours after the administration, and was centrifuged to obtain plasma.
30 μL of methanol and 300 µL of acetonitrile were added to 120 μL of the obtained plasma, and mixed with a Vortex mixer for 15 seconds. The sample was centrifuged to obtain 300 μL of the supernatant. The supernatant was dried, and 120 μL of an eluent was added thereto, and then mixed with a Vortex mixer for 15 seconds. After the mixture was centrifuged, the amount of each test compound remaining in the plasma was determined with liquid chromatography.
40 μL of the sample, as prepared above, was applied to liquid chromatography with the following conditions to conduct the measurement.
• Column: InertsiL (registered trademark) ODS-3 4.6 mmI.D.×250 mm; • Column temperature: 40° C.; • Eluent: Solution A (10 mmoL/L ammonium acetate:methanol=50:50), and Solution B (10 mmoL/L ammonium acetate:methanol=10:90); • Gradient condition (eluent composition): solution A→20 min.→solution B (5 min. elution)→1 min.→solution A (12 min. elution); • Flow rate: 1.0 mL; and • Detection wavelength: 314 nm.
• Column: InertsiL (registered trademark) ODS-3 4.6 mmI.D.×150 mm; • Column temperature: 40° C.; • Eluent: Solution A (aqua:methanol:acetic acid=90:10:0.5), and Solution B (aqua:methanol:acetic acid=10:90:0.5); • Gradient condition (eluent composition): solution A→20 min.→solution B (5 min. elution)→1 min.→solution A (12 min. elution); • Flow rate: 1.0 mL; and • Detection wavelength: 323 nm.
• Column: InertsiL (registered trademark) ODS-3 4.6 mmI.D.×150 mm; • Column temperature: 40° C.; • Eluent: Solution A (pH=2.2 phosphate buffer:acetonitrile=90:10), and Solution B (pH=2.2 phosphate buffer:acetonitrile=10:90); • Gradient condition (eluent composition): Solution A→10 min.→Solution B (2.5 min. elution)→0.5 min.→Solution A (9 min. elution); • Flow rate: 2.0 mL; and
Detection wavelength: 315nm.
Based on the peak area obtained in the liquid chromatography analysis with respect to 1 μg/mL of each test compound in plasma, the plasma concentration (μg/mL) at each time point was calculated.

[5] = tested on: bleeding time in male SD rats; assay: Effect on bleeding time in rats (tail cutting); conditions: 30 mg/kg oral, max observation 60 min
Protocol: as §1, §2, §3

[6] = phosphate buffer pH 3.4, 37° C., read-out: Half-life, pH 3.4 solution (converted)
[7] = phosphate buffer pH 7.3, 37° C., read-out: Half-life, pH 7.3 solution (converted)
[8] = male, SD, rat, plasma, 10 mg/kg, 0.25 h
[9] = male, SD, rat, plasma, 10 mg/kg, 0.5 h
[10] = male, SD, rat, plasma, 10 mg/kg, 1.0 h
[11] = male, SD, rat, plasma, 10 mg/kg, 2.0 h
[12] = male, SD, rat, plasma, 10 mg/kg, 4.0 h
[13] = male, SD, rat, plasma, 10 mg/kg, 6.0 h
[14] = male, SD, rat, plasma, 10 mg/kg, 8.0 h
[15] = male, SD, rat, plasma, 10 mg/kg, from administration to 24 hours
[16] = male, SD, rat, plasma, 10 mg/kg
[17] = 30 mg/kg multiple oral dosing (1 h prior to and 3 h after lauric-acid, then twice daily for 9 days), 10 days after lauric-acid injection
[18] = 30 mg/kg multiple oral dosing (1 h prior to and 3 h after lauric-acid, then twice daily), 3 days after lauric-acid injection
[19] = 60 min between oral dosing and the tail cutting
[20] = 180 min between oral dosing and the tail cutting

Bleeding time ([2]; 300 mg/kg, 180 min): 36.1 min
Compound: Clc1ccccc1CN1CCc2sccc2C1 [ticlopidine hydrochloride, reference compound]
Lesion Index after 3 days ([1]; positive control, 300 mg/kg orally 3 hours prior to lauric-acid injection, 3 days after injection): 2.8 | Lesion Index after 10 days ([1]; positive control, 300 mg/kg orally 3 hours prior to lauric-acid injection, 10 days after injection): 7.4

half-life at 1 mmoL/L [3, 6]: 30 h | half-life at 1 mmoL/L [3, 7]: 65 h | plasma concentration, Mean, time point 12.0 h ([4]; 12.0 h): Not detected | plasma concentration, Mean, time point 24.0 h ([4]; 24.0 h): Not detected | concentration at 0.25 h [4, 8]: 600 ng/mL | concentration at 0.5 h [4, 9]: 300 ng/mL | concentration at 1 h [4, 10]: 300 ng/mL | concentration at 2 h [4, 11]: 300 ng/mL | concentration at 4 h [4, 12]: 300 ng/mL | concentration at 6 h [4, 13]: 300 ng/mL | concentration at 8 h [4, 14]: 200 ng/mL | AUC [4, 15]: 2200 ± 100 ng·h/mL | Cmax [4, 16]: 600 ± 100 ng/mL | Tmax [4, 16]: 0.25 h
Compound: O=c1oc2ccccc2c(O)c1O [comparative compound A]

Bleeding time [5, 19]: 9.1 min | Bleeding time [5, 20]: 8.3 min
Compound: CCCCCCOc1c(O)c2ccc(OCCO)cc2oc1=O [Compound 445]
Lesion Index after 10 days [1, 17]: 7.5 | Lesion Index after 3 days [1, 18]: 2.7

Half-life, pH 3.4 solution [3]: >>100 hr | Half-life, pH 7.3 solution [3]: >>100 hr | Cmax (maximum plasma concentration) [4]: 25100 ± 13300 ng/mL | Tmax (time required to reach the maximum plasma concentration) [4]: 0.3 ± 0.1 h | plasma concentration, Mean, time point 0.25 h ([4]; 0.25 h): 23600 ng/mL | plasma concentration, Mean, time point 0.5 h ([4]; 0.5 h): 23600 ng/mL | plasma concentration, Mean, time point 1.0 h ([4]; 1.0 h): 17900 ng/mL | plasma concentration, Mean, time point 2.0 h ([4]; 2.0 h): 11800 ng/mL | plasma concentration, Mean, time point 4.0 h ([4]; 4.0 h): 9200 ng/mL | plasma concentration, Mean, time point 6.0 h ([4]; 6.0 h): 6800 ng/mL | plasma concentration, Mean, time point 8.0 h ([4]; 8.0 h): 3000 ng/mL | plasma concentration, Mean, time point 12.0 h ([4]; 12.0 h): 1200 ng/mL | plasma concentration, Mean, time point 24.0 h ([4]; 24.0 h): 500 ng/mL | AUC (area under the plasma concentration-time curve) ([4]; from administration to 24 hours): 99500 ± 64400 ng·h/mL | Bleeding time [5, 19]: 7.8 min | Bleeding time [5, 20]: 7.5 min
Compound: CCCCCCCCOc1c(O)c2ccc(OCCO)cc2oc1=O [Compound 451]
Lesion Index after 10 days [1, 17]: 7.2 | Lesion Index after 3 days [1, 18]: 2.6

Bleeding time ([2]; 100 mg/kg, 60 min): 40.2 min
Compound: CC(=O)Oc1ccccc1C(=O)O [aspirin]

Bleeding time [5, 19]: 8.9 min | Bleeding time [5, 20]: 8.2 min
Compound: CCOc1c(O)c2ccc(OC)cc2oc1=O [Compound 144]
Lesion Index after 10 days [1, 17]: 7.2 | Lesion Index after 3 days [1, 18]: 2.5

Bleeding time ([2]; 300 mg/kg, 60 min): 50.1 min
Compound: O=C1CCc2cc(OCCCCc3nnnn3C3CCCCC3)ccc2N1 [cilostazol]

Bleeding time ([2]; 1 mg/kg, 60 min): 42.2 min
Compound: CC#CCC(C)[C@H](O)/C=C/[C@@H]1[C@H]2c3cccc(CCCC(=O)O)c3O[C@H]2C[C@H]1O (mixture of isomers) [beraprost sodium]

Half-life, pH 3.4 solution [3]: >>100 hr | Half-life, pH 7.3 solution [3]: >>100 hr | Bleeding time [5, 19]: 8.0 min | Bleeding time [5, 20]: 8.4 min
Compound: CCCCCCOc1c(O)c2ccc(O)cc2oc1=O [Compound 125]
Lesion Index after 10 days [1, 17]: 8.1 | Lesion Index after 3 days [1, 18]: 2.6

Half-life, pH 3.4 solution [3]: >>100 hr | Half-life, pH 7.3 solution [3]: >>100 hr | Bleeding time [5, 19]: 8.5 min | Bleeding time [5, 20]: 8.1 min
Compound: CCCCCCCCOc1c(O)c2ccc(OCCC(=O)O)cc2oc1=O [Compound 525]
Lesion Index after 10 days [1, 17]: 7.8 | Lesion Index after 3 days [1, 18]: 2.9

half-life at 1 mmoL/L [3, 6]: 53 h | half-life at 1 mmoL/L [3, 7]: 70 h | concentration at 0.25 h [4, 8]: 7400 ng/mL | concentration at 0.5 h [4, 9]: 4100 ng/mL | concentration at 1 h [4, 10]: 2000 ng/mL | concentration at 2 h [4, 11]: 1400 ng/mL | concentration at 4 h [4, 12]: 300 ng/mL | concentration at 6 h [4, 13]: 100 ng/mL | concentration at 8 h [4, 14]: 100 ng/mL | concentration at 12 h ([4]; male, SD, rat, plasma, 10 mg/kg, 12.0 h, read-out: plasma concentration, Mean, time point 12.0 h): 0 ng/mL | concentration at 24 h ([4]; male, SD, rat, plasma, 10 mg/kg, 24.0 h, read-out: plasma concentration, Mean, time point 24.0 h): 0 ng/mL | AUC [4, 15]: 8300 ± 2600 ng·h/mL | Cmax [4, 16]: 7400 ± 200 ng/mL | Tmax [4, 16]: 0.25 h
Compound: O=c1oc2ccc(Cl)cc2c(O)c1O [B]
